Among the data in PubChem BioAssay AID1745844 (Carcinogenic Potency Database (CPDB), 2022) are TD50 and carcinogen call values, retold here.

The test system of the data set is rodent lifetime carcinogenesis bioassay, tumor incidence TD50. The experiment in a line: carcinogenic potency in animals, long-term in vivo studies, CPDB compilation (AID 1745844).

As usually defined, the TD50 is the dose at which the toxic effect under study appears in half of the subjects.

Each structure is given as a SMILES string. Calls of active or inactive are those of the source. How the calls were made is not given here.

`O=CNc1nc(-c2ccc([N+](=O)[O-])o2)cs1`: the TD50 (hamster, strain Syrian Golden, males, in feed, site: forestomach, lesion: squamous-cell papilloma, dosed 48 weeks, study length 70 weeks) was 83.8 mg/kg/day; the TD50 (hamster, strain Syrian Golden, males, in feed, site: urinary bladder, lesion: squamous-cell carcinoma, dosed 48 weeks, study length 70 weeks) is 54 mg/kg/day; the TD50 (mouse, strain Charles River CD1, females, in feed, site: any site (literature study), lesion: several types, types named in the paper, dosed 36 weeks, study length 68 weeks) came out at 18.7 mg/kg/day; the TD50 (mouse, strain Charles River CD1, females, in feed, site: lung, lesion: adenoma, dosed 36 weeks, study length 68 weeks) came to 1120 mg/kg/day; the TD50 (mouse, strain Charles River CD1, females, in feed, site: urinary bladder, lesion: spindle-cell tumor, dosed 36 weeks, study length 68 weeks) is 128 mg/kg/day; the TD50 (mouse, strain Charles River CD1, females, in feed, site: urinary bladder, lesion: squamous-cell carcinoma, dosed 36 weeks, study length 68 weeks) is 128 mg/kg/day. The TD50 is, setting by setting: (mouse, strain Charles River CD1, females, in feed, site: urinary bladder, lesion: transitional-cell carcinoma, dosed 36 weeks, study length 68 weeks) 33.3 mg/kg/day; (mouse, strain Charles River CD1, males, in feed, site: any site (literature study), lesion: several types, types named in the paper, dosed 40 weeks, study length 77 weeks) 21.5 mg/kg/day; (mouse, strain Charles River CD1, males, in feed, site: urinary bladder, lesion: spindle-cell tumor, dosed 40 weeks, study length 77 weeks) 97.1 mg/kg/day; (mouse, strain Charles River CD1, males, in feed, site: urinary bladder, lesion: squamous-cell carcinoma, dosed 40 weeks, study length 77 weeks) 250 mg/kg/day; (mouse, strain Charles River CD1, males, in feed, site: urinary bladder, lesion: transitional-cell carcinoma, dosed 40 weeks, study length 77 weeks) 30.5 mg/kg/day; (mouse, strain NMRI, females, by gavage, site: any site (literature study), lesion: benign tumor, dosed 68 weeks, study length 75 weeks) 69.4 mg/kg/day. For the same compound, the TD50 was 59.5 mg/kg/day (mouse, strain NMRI, females, by gavage, site: any site (literature study), lesion: malignant tumor, dosed 68 weeks, study length 75 weeks); 164 mg/kg/day (mouse, strain NMRI, females, by gavage, site: forestomach, lesion: papilloma, dosed 68 weeks, study length 75 weeks); 139 mg/kg/day (mouse, strain NMRI, females, by gavage, site: forestomach, lesion: squamous-cell carcinoma, dosed 68 weeks, study length 75 weeks); 2390 mg/kg/day (mouse, strain NMRI, females, by gavage, site: liver, lesion: malignant tumor, dosed 68 weeks, study length 75 weeks); 944 mg/kg/day (mouse, strain NMRI, females, by gavage, site: stomach, glandular, lesion: malignant tumor, dosed 68 weeks, study length 75 weeks); 47.6 mg/kg/day (mouse, strain Swiss, females, in feed, site: all sites, lesion: leukemia, dosed 33 weeks, study length 52 weeks). Besides, the TD50 is 55.4 mg/kg/day (mouse, strain Swiss, females, in feed, site: all sites, lesion: leukemia, dosed 46 weeks, study length 53 weeks); 78.3 mg/kg/day (mouse, strain Swiss, females, in feed, site: all sites, lesion: lymphocytic leukemia, dosed 46 weeks, study length 66 weeks); 235 mg/kg/day (mouse, strain Swiss, females, in feed, site: forestomach, lesion: squamous-cell papilloma, dosed 46 weeks, study length 66 weeks); 208 mg/kg/day (mouse, strain Swiss, females, in feed, site: lung, lesion: alveolar-cell adenoma, dosed 33 weeks, study length 52 weeks); 86.4 mg/kg/day (mouse, strain Swiss, females, in feed, site: lung, lesion: alveolar-cell carcinoma, dosed 46 weeks, study length 66 weeks); 163 mg/kg/day (mouse, strain Swiss, females, in feed, site: lung, lesion: carcinoma, dosed 46 weeks, study length 53 weeks). Moreover, the TD50 (mouse, strain Swiss, females, in feed, site: urinary bladder, lesion: carcinoma, dosed 33 weeks, study length 52 weeks) is 19.8 mg/kg/day; the TD50 (mouse, strain Swiss, females, in feed, site: urinary bladder, lesion: one or several types, types not named, dosed 46 weeks, study length 53 weeks) is 18.2 mg/kg/day; the TD50 (mouse, strain Swiss, females, in feed, site: urinary bladder, lesion: transitional-cell carcinoma, dosed 46 weeks, study length 66 weeks) was 7.72 mg/kg/day; the TD50 (rat, strain Fischer 344, males, in feed, site: urinary bladder, lesion: carcinoma, dosed 30 weeks, study length 104 weeks) is 3.18 mg/kg/day; the TD50 (rat, strain Fischer 344, males, in feed, site: urinary bladder, lesion: papillary carcinoma, dosed 30 weeks, study length 52 weeks) came out at 5.92 mg/kg/day; the TD50 (rat, strain Fischer 344, males, in feed, site: urinary bladder, lesion: several types, types named in the paper, dosed 30 weeks, study length 52 weeks) is 1.31 mg/kg/day. Further, the TD50 is, setting by setting: (rat, strain Fischer, males, in feed, site: liver, lesion: hyperplastic nodule, dosed 36 weeks, study length 74 weeks) 263 mg/kg/day; (rat, strain Fischer, males, in feed, site: urinary bladder, lesion: carcinoma, invasive, dosed 36 weeks, study length 74 weeks) 9.74 mg/kg/day; (rat, strain Fischer, males, in feed, site: urinary bladder, lesion: carcinoma, invasive, dosed 77 weeks, study length 77 weeks) 18.1 mg/kg/day; (rat, strain Fischer, males, in feed, site: urinary bladder, lesion: carcinoma, noninvasive, dosed 36 weeks, study length 74 weeks) 60.5 mg/kg/day; (rat, strain Fischer, males, in feed, site: urinary bladder, lesion: carcinoma, noninvasive, dosed 77 weeks, study length 77 weeks) 195 mg/kg/day; (rat, strain Fischer, males, in feed, site: urinary bladder, lesion: carcinoma, dosed 36 weeks, study length 74 weeks) 4.51 mg/kg/day. Also, the TD50 was 9.87 mg/kg/day (rat, strain Fischer, males, in feed, site: urinary bladder, lesion: carcinoma, dosed 77 weeks, study length 77 weeks); 48.6 mg/kg/day (rat, strain Sprague-Dawley, females, in feed, site: urinary bladder, lesion: papillary carcinoma, dosed 26 weeks, study length 70 weeks); 82.7 mg/kg/day (rat, strain Sprague-Dawley, females, in feed, site: urinary bladder, lesion: papillary carcinoma, dosed 46 weeks, study length 70 weeks); 5.07 mg/kg/day (rat, strain Sprague-Dawley, females, in feed, site: urinary bladder, lesion: several types, types named in the paper, dosed 46 weeks, study length 63 weeks). The carcinogen call was “positive” (hamster, strain Syrian Golden, males, in feed, site: urinary bladder, lesion: several types, types named in the paper, dosed 48 weeks, study length 70 weeks); “positive” (rat, strain Fischer, males, in feed, site: urinary bladder, lesion: carcinoma, dosed 72 weeks, study length 72 weeks); “positive” (rat, strain Sprague-Dawley, females, in feed, site: urinary bladder, lesion: several types, types named in the paper, dosed 26 weeks, study length 70 weeks); “positive” (rat, strain Sprague-Dawley, females, in feed, site: urinary bladder, lesion: several types, types named in the paper, dosed 46 weeks, study length 70 weeks); “positive” (rat, strain Sprague-Dawley, females, in feed, site: urinary bladder, lesion: transitional-cell carcinoma, dosed 26 weeks, study length 70 weeks); “positive” (rat, strain Sprague-Dawley, females, in feed, site: urinary bladder, lesion: transitional-cell carcinoma, dosed 46 weeks, study length 70 weeks). The carcinogen call reads like this: (rat, strain Sprague-Dawley, males, in feed, site: urinary bladder, lesion: transitional-cell carcinoma, dosed 26 weeks, study length 52 weeks) “positive”; (rat, strain Sprague-Dawley, males, in feed, site: urinary bladder, lesion: transitional-cell carcinoma, dosed 46 weeks, study length 52 weeks) “positive”; (rat, strain Wistar, females, in feed, site: urinary bladder, lesion: transitional-cell carcinoma, dosed 34 weeks, study length 52 weeks) “positive”.

`O=C(O)Cc1c[nH]c2ccccc12`: the carcinogen call is “negative (inactive)” (mouse, strain B6AKF1, females, oral dosing, site: any site (literature study), lesion: several types, types named in the paper, dosed 76 weeks, study length 76 weeks); “negative (inactive)” (mouse, strain B6AKF1, females, oral dosing, site: liver, lesion: hepatoma, dosed 76 weeks, study length 76 weeks); “negative (inactive)” (mouse, strain B6AKF1, females, oral dosing, site: lung, lesion: adenoma, dosed 76 weeks, study length 76 weeks); “negative (inactive)” (mouse, strain B6AKF1, males, oral dosing, site: any site (literature study), lesion: several types, types named in the paper, dosed 76 weeks, study length 76 weeks); “negative (inactive)” (mouse, strain B6AKF1, males, oral dosing, site: liver, lesion: hepatoma, dosed 76 weeks, study length 76 weeks); “negative (inactive)” (mouse, strain B6AKF1, males, oral dosing, site: lung, lesion: adenoma, dosed 76 weeks, study length 76 weeks). Besides, under “mouse, strain B6C3F1, females, oral dosing, site: liver, lesion: hepatoma, dosed 76 weeks, study length 76 weeks”, the carcinogen call was “negative (inactive)”. Further, the TD50 by setting is: (mouse, strain B6C3F1, females, oral dosing, site: any site (literature study), lesion: several types, types named in the paper, dosed 76 weeks, study length 76 weeks) 538 mg/kg/day (inactive); (mouse, strain B6C3F1, females, oral dosing, site: lung, lesion: adenoma, dosed 76 weeks, study length 76 weeks) 538 mg/kg/day (inactive); (mouse, strain B6C3F1, males, oral dosing, site: any site (literature study), lesion: several types, types named in the paper, dosed 76 weeks, study length 76 weeks) 40.3 mg/kg/day (inactive); (mouse, strain B6C3F1, males, oral dosing, site: liver, lesion: hepatoma, dosed 76 weeks, study length 76 weeks) 113 mg/kg/day (inactive); (mouse, strain B6C3F1, males, oral dosing, site: lung, lesion: adenoma, dosed 76 weeks, study length 76 weeks) 500 mg/kg/day (inactive).

In the case of `COc1cc(C=NNC(=O)c2ccncc2)ccc1O`, the TD50 is, setting by setting: (mouse, strain Not specified, both sexes, by gavage, site: any site (literature study), lesion: several types, types named in the paper, dosed 52 weeks, study length 52 weeks) 27.4 mg/kg/day; (mouse, strain Not specified, both sexes, by gavage, site: lung, lesion: adenocarcinoma, dosed 52 weeks, study length 52 weeks) 45 mg/kg/day; (mouse, strain Not specified, both sexes, by gavage, site: mammary gland, lesion: adenocarcinoma, dosed 52 weeks, study length 52 weeks) 86.6 mg/kg/day.

Take `CC(=O)Nc1ccc(N=Nc2cc(C)ccc2O)cc1`: the TD50 is 1510 mg/kg/day (mouse, strain B6C3F1, females, in feed, site: all sites, lesion: leukemia + lymphoma, dosed 103 weeks, study length 105 weeks); 1680 mg/kg/day (mouse, strain B6C3F1, females, in feed, site: all sites, lesion: lymphoma, dosed 103 weeks, study length 105 weeks); 769 mg/kg/day (mouse, strain B6C3F1, females, in feed, site: any site (literature study), lesion: several types, types named in the paper, dosed 103 weeks, study length 105 weeks); 1020 mg/kg/day (mouse, strain B6C3F1, females, in feed, site: liver, lesion: hepatocellular adenoma + hepatocellular carcinoma + neoplastic nodule, dosed 103 weeks, study length 105 weeks); 1020 mg/kg/day (mouse, strain B6C3F1, females, in feed, site: liver, lesion: hepatocellular adenoma + hepatocellular carcinoma, dosed 103 weeks, study length 105 weeks); 1340 mg/kg/day (mouse, strain B6C3F1, females, in feed, site: liver, lesion: hepatocellular adenoma, dosed 103 weeks, study length 105 weeks). The TD50 was 17200 mg/kg/day (mouse, strain B6C3F1, males, in feed, site: any site (literature study), lesion: several types, types named in the paper, dosed 103 weeks, study length 104 weeks); 2440 mg/kg/day (mouse, strain B6C3F1, males, in feed, site: lung, lesion: alveolar/bronchiolar adenoma + alveolar/bronchiolar carcinoma, dosed 103 weeks, study length 104 weeks); 2150 mg/kg/day (inactive) (mouse, strain B6C3F1, males, in feed, site: lung, lesion: alveolar/bronchiolar adenoma, dosed 103 weeks, study length 104 weeks); 46800 mg/kg/day (rat, strain Fischer 344, females, in feed, site: liver, lesion: hepatocellular adenoma + hepatocellular carcinoma + neoplastic nodule, dosed 103 weeks, study length 104 weeks); 833 mg/kg/day (rat, strain Fischer 344, males, in feed, site: liver, lesion: hepatocellular adenoma + hepatocellular carcinoma + neoplastic nodule, dosed 103 weeks, study length 104 weeks); 833 mg/kg/day (rat, strain Fischer 344, males, in feed, site: liver, lesion: hepatocellular carcinoma + neoplastic nodule, dosed 103 weeks, study length 104 weeks). Besides, the TD50 by setting is: (rat, strain Fischer 344, males, in feed, site: liver, lesion: neoplastic nodule, dosed 103 weeks, study length 104 weeks) 380 mg/kg/day; (rat, strain Fischer 344, males, in feed, site: stomach, lesion: all tumors, dosed 103 weeks, study length 104 weeks) 4090 mg/kg/day. Further, the carcinogen call (rat, strain Fischer 344, females, in feed, site: any site (literature study), lesion: several types, types named in the paper, dosed 103 weeks, study length 104 weeks) was “negative (inactive)”.
